From US20110250243A1, “NANOPARTICLE COMPOSITIONS” (priority 2008, published 2011)

Assay: Encapsulation of coumarin-6 in PEC nanoparticles by solvent displacement
Format: physicochemical
Settings: solvent displacement method
Experimental: Coumarin-6 is used (absorption: 485 nm, emission: 505-525 nm) as it allows to optically detect a potential phagocytosis process and furthermore, is a suitable model for a lipophilic agent. Due to its lipophilic characteristics and low water solubility, coumarin-6 can suitably be processed by the solvent displacement method, in order to achieve a high packaging rate. The encapsulation efficiency is very high and lies close to 100%. The preparation of the loaded nanoparticles is also performed using the modified solvent-displacement method as described in example 2. Coumarin-6 is used in a stock solution of 50 μg/ml in acetonitrile (the stock solution is stored in the refrigerator and protected by light e.g. by using aluminium foil) and the PEC 95 and 99 polymers as a 10 mg/ml stock solution in acetonitrile. All samples are set up in triplicate. For loading the nanoparticles the required amounts of PEC stock solution and coumarin-6 stock solution are mixed, filled up with acetonitrile up to 1.5 ml and vortexed (see table 2). This solution is then injected into the PVA solution according to the usual schema (see above).

CCN(CC)c1ccc2cc(-c3nc4ccccc4s3)c(=O)oc2c1 [coumarin-6]
Encapsulation efficiency: ~100%
